Values quoted from earlier work, collected in US7229642B2, “Amino acid modulated extended release dosage form” (Scolr, Inc., priority 1999, dated 2007).
Like-named read-outs stand apart in the source and are kept apart here.

Conditions: for HYDROPHOBIC VALUE: hydropathy scale of Pliska et al., J. Chromatog. 216, 79, 1981, glycine = 0; for CHARACTERIZATION (hydropathy): hydropathy characteristic in words

For `C[C@H](N)C(=O)O` [Alanine], the “HYDROPHOBIC VALUE” is given as 0.35.
In the case of `NC(=O)C[C@H](N)C(=O)O` [Asparagine], the “HYDROPHOBIC VALUE” is listed as −0.99.
For `N[C@@H](CC(=O)O)C(=O)O` [Aspartic acid], the “CHARACTERIZATION (hydropathy)” value is listed as “strongly hydrophilic” and the “HYDROPHOBIC VALUE” is listed as −2.15.
In the case of `N[C@@H](CS)C(=O)O` [Cysteine], the “HYDROPHOBIC VALUE” is listed as 0.76.
For `NCC(=O)O` [Glycine], the “CHARACTERIZATION (hydropathy)” value is given as “Neutral, Balanced”, the “CHARACTERIZATION (hydropathy)” value (listed as glycine) is given as “neutral” and the “HYDROPHOBIC VALUE” is given as 0.
For `N[C@@H](Cc1c[nH]cn1)C(=O)O` [Histidine], the “HYDROPHOBIC VALUE” is given as −0.65.
For `CC[C@H](C)[C@H](N)C(=O)O` [Isoleucine], the “CHARACTERIZATION (hydropathy)” value is listed as “Strongly Hydrophobic”, the “CHARACTERIZATION (hydropathy)” value (listed as iso-leucine) is listed as “strongly hydrophobic” and the “HYDROPHOBIC VALUE” is listed as 1.83.
For `NCCCC[C@H](N)C(=O)O` [Lysine], the “HYDROPHOBIC VALUE” is listed as −1.54.
In the case of `CSCC[C@H](N)C(=O)O` [Methionine], the “CHARACTERIZATION (hydropathy)” value is listed as “Moderately Hydrophobic” and the “HYDROPHOBIC VALUE” is listed as 1.10.
In the case of `N[C@@H](Cc1ccccc1)C(=O)O` [Phenylalanine], the “HYDROPHOBIC VALUE” is listed as 1.69.
In the case of `O=C(O)[C@@H]1CCCN1` [Proline], the “HYDROPHOBIC VALUE” is listed as 0.84.
For `N[C@@H](CO)C(=O)O` [Serine], the “HYDROPHOBIC VALUE” is given as −0.63.
In the case of `C[C@@H](O)[C@H](N)C(=O)O` [Threonine], the “CHARACTERIZATION (hydropathy)” value is listed as “Weakly Hydrophilic” and the “HYDROPHOBIC VALUE” is listed as −0.27.
In the case of `N[C@@H](Cc1c[nH]c2ccccc12)C(=O)O` [Tryptophan], the “HYDROPHOBIC VALUE” is listed as 1.35.
For `N[C@@H](Cc1ccc(O)cc1)C(=O)O` [Tyrosine], the “CHARACTERIZATION (hydropathy)” value is given as “Weakly Hydrophobic” and the “HYDROPHOBIC VALUE” is given as 0.39.
In the case of `CC(C)[C@H](N)C(=O)O` [Valine], the “HYDROPHOBIC VALUE” is listed as 1.32.
